Consider one compound from patent US20250064867A1, “METHOD FOR PREVENTING OR TREATING MUSCLE DISEASE” (KOREA RESEARCH INSTITUTE OF BIOSCIENCE AND BIOTECHNOLOGY, priority 2018, published 2025).

The series relates to C2C12 myoblasts. Put plainly: WST-1 cytotoxicity assay on C2C12. The settings on record: 24 hours. It counts as cell-based, mouse. As for the experimental part: First, mouse skeletal muscle C2C12 cell line (CRL-1772, ATCC, Manassas, VA, USA) was purchased and used. To assess the cytotoxicity of dexamethasone and HB05P on C2C12, a WST-1 assay (Cell Proliferation Reagent WST-1, 5015944001, Roche, Basel, Switzerland) was performed. Myoblasts (C2C12) were dispensed at a density of 2.0×10^4 cells/well into 96-well plates (Corning® 96-well Clear Polystyrene Microplates, 3598, Corning, Glendale, AZ, USA) and cultured at 37° C. in 5% CO2 conditions for 24 hours. The cultured cells were then treated with varying concentrations of dexamethasone (0, 250, 500, 750, 1000 μM) and HB05P (0, 1.0×10^3, 1.0×10^4, 1.0×10^5, 1.0×10^6, 1.0×10^7 cells/well). After 24 hours of incubation, cell viability was measured using a VersaMax Microplate Reader (Molecular devices, San Jose, CA, USA).

In the case of `C[C@@H]1C[C@H]2[C@@H]3CCC4=CC(=O)C=C[C@]4(C)[C@@]3(F)[C@@H](O)C[C@]2(C)[C@@]1(O)C(=O)CO` [dexamethasone], the “cell viability, trend over concentration” value (0, 250, 500, 750, 1000 μM) is “concentration-dependent decrease”. For the same compound, the cell viability (250 μM, untreated = 100%) is 66.6%.
